Test results: patent US20250051338A1, “TYK2 DEGRADERS AND USES THEREOF” (Kymera Therapeutics, Inc., priority 2021, published 2025)

Key:
Type in all cases: cell-based
[1] = target: T1, TYK2 (Homo sapiens, UniProt P29597); assay: TYK2 degradation MSD assay in OCI-LY10 cells; design: endogenous in cells; host or cells: EBV-B cells; settings: 4 to 24 hours incubation, read-out: TYK2 MSD DC50 rating in OCI-LY10
Procedure, shortened: (§1)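 Cells (0.4 million per well) were treated with a 9-point, 1:3 compound series from a top concentration of 1 to 10 μM for 4 to 24 hours at 37° C, then lysed in RIPA with protease/phosphatase inhibitors. Remaining TYK2 was quantified by sandwich MSD immunoassay; DC50 came from four-parameter nonlinear fits.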

[2] = target: T1, TYK2; assay: TYK2 degradation MSD assay in human PBMC cells; design: endogenous in cells; host or cells: human PBMC; settings: 4 to 24 hours incubation, read-out: TYK2 MSD DC50 rating in human PBMC
Procedure, shortened: as §1

[3] = target: T1, TYK2; assay: TYK2 degradation MSD assay in EBV-B cells; design: endogenous in cells; host or cells: EBV-B cells; settings: 4 to 24 hours incubation, read-out: TYK2 MSD DC50 rating in EBV-B
Procedure, shortened: as §1

T1 sequence (P29597 whole entry): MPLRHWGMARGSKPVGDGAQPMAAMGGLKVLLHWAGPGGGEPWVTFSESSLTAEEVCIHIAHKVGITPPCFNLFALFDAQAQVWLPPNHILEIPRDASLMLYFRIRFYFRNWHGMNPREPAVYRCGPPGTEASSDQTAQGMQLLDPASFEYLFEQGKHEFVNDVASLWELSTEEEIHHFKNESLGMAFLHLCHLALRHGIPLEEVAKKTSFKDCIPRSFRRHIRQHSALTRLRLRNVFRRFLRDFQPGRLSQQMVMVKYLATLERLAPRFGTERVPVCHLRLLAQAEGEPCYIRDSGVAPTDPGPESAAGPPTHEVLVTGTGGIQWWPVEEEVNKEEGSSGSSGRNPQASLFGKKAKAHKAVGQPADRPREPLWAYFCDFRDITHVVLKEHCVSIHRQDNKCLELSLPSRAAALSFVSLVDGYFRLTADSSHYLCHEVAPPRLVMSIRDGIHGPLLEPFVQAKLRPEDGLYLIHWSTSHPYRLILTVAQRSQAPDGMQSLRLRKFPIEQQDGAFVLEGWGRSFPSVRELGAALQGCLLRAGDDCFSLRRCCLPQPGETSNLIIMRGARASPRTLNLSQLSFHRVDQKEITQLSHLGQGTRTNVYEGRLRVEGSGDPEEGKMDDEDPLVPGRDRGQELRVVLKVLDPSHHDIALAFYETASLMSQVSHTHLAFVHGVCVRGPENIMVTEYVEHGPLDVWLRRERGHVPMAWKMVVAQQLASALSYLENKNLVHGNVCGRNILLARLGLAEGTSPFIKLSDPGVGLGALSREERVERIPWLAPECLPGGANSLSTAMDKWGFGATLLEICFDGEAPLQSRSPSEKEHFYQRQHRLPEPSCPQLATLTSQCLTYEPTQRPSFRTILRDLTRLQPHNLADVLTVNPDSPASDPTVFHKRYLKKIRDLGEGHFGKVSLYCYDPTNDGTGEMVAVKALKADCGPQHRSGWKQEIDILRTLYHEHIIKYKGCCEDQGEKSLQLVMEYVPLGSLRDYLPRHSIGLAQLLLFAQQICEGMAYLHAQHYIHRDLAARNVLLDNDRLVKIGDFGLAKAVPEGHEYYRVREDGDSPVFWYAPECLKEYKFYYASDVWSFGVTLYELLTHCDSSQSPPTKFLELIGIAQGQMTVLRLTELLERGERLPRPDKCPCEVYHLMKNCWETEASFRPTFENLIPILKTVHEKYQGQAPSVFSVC

Row | Structure (SMILES) | DC50 [1] [nM] | DC50 [2] [nM] | DC50 [3] [nM]
1 | CNc1cc(Nc2cccn(-c3cc(C(=O)NCCCCCCc4ccc5c(c4)n(C)c(=O)n5C4CCC(=O)NC4=O)ccn3)c2=O)nn2c(C(=O)N[C@@H]3C[C@@H]3F)cnc12 (stereo partly drawn) [Example K229] | > 100 | < 1 | > 100
2 | CNC(=O)c1cnc(Nc2ccc(CN3CC(c4ccc5c(c4)n(C)c(=O)n5C4CCC(=O)NC4=O)C3)cn2)cc1Nc1cccc(-c2ncc(F)cn2)c1OC (stereo not drawn) [Example K199] | > 100 | 1 to 10 | > 100
3 | CNc1cc(Nc2cccn(-c3cccc(C(=O)NCCCCc4cccc5c4n(C)c(=O)n5C4CCC(=O)NC4=O)c3)c2=O)nn2c(C(=O)N[C@@H]3C[C@@H]3F)cnc12 (stereo partly drawn) [Example K220] | > 100 | > 100 | > 100
4 | CNc1cc(Nc2cccn(-c3cc(C(=O)NCCCCCCCCCCc4cccc5c4n(C)c(=O)n5C4CCC(=O)NC4=O)ccn3)c2=O)nn2c(C(=O)N[C@@H]3C[C@@H]3F)cnc12 (stereo partly drawn) [Example K234] | > 100 | > 100 | > 100
5 | CNc1cc(Nc2cccn(-c3cccc(C(=O)NCCOCCOCCOCCOCCOCCOCCc4ccc5c(c4)n(C)c(=O)n5C4CCC(=O)NC4=O)c3)c2=O)nn2c(C(=O)N[C@@H]3C[C@@H]3F)cnc12 (stereo partly drawn) [Example K243] | > 100 | > 100 | > 100
6 | CNC(=O)c1cnc(Nc2cc(C(=O)NCCCCCCCCc3ccc4c(c3)n(C)c(=O)n4C3CCC(=O)NC3=O)ccn2)cc1Nc1cccc(-c2ncc(F)cn2)c1OC (stereo not drawn) [Example K129] | > 100 | < 1 | 1 to 10
7 | CNc1cc(-c2cnn(C3CCN(C(=O)NCCCCc4cccc5c4n(C)c(=O)n5C4CCC(=O)NC4=O)CC3)c2)nn2c(C(=O)N[C@@H]3C[C@@H]3F)cnc12 (stereo partly drawn) [Example K295] | > 100 | > 100 | > 100
8 | CNc1cc(-c2cnn(C3CCC(CN4CC5(CCN(c6cccc7c6n(C)c(=O)n7C6CCC(=O)NC6=O)CC5)C4)CC3)c2)nn2c(C(=O)NC3C[C@@H]3F)cnc12 (stereo partly drawn) [Example K362] | > 100 | < 1 | > 100
9 | CCc1nn(-c2cccc(F)c2OC)c2cc(Nc3ccc(CN(C)C4CCN(c5cccc6c5n(C)c(=O)n6C5CCC(=O)NC5=O)CC4)cn3)ncc12 (stereo not drawn) [Example K537] | > 100 | > 100 | > 100
10 | CNC(=O)c1cnc(Nc2ccc(CN3CCCC(c4cccc5c4n(C)c(=O)n5C4CCC(=O)NC4=O)C3)cn2)cc1Nc1cccc(-c2ncc(F)cn2)c1OC (stereo not drawn) [Example K156] | > 100 | > 100 | > 100
11 | CNc1cc(Nc2cccn(-c3cccc(C(=O)NCCOCCOCCOCCOCCc4ccc5c(c4)n(C)c(=O)n5C4CCC(=O)NC4=O)c3)c2=O)nn2c(C(=O)N[C@@H]3C[C@@H]3F)cnc12 (stereo partly drawn) [Example K239] | > 100 | > 100 | > 100
12 | CNc1cc(Nc2cccn(-c3cc(C(=O)NCCOCCOCCOCCOCCOCCOCCc4cccc5c4n(C)c(=O)n5C4CCC(=O)NC4=O)ccn3)c2=O)nn2c(C(=O)N[C@@H]3C[C@@H]3F)cnc12 (stereo partly drawn) [Example K244] | > 100 | > 100 | > 100

Continued, values first:

Row | DC50 [1] [nM] | DC50 [2] [nM] | DC50 [3] [nM] | Structure (SMILES)
13 | < 1 | > 100 | > 100 | Cn1c(=O)n(C2CCC(=O)NC2=O)c2ccc(-c3ccc(N4CCN(Cc5ccc(-c6cccc(Nc7nn8c(C(=O)N[C@@H]9C[C@@H]9F)cnc8c8c7OCCN8)c6)nc5)CC4)cc3)cc21 (stereo partly drawn) [Example K557]
14 | > 100 | 1 to 10 | > 100 | CNc1cc(Nc2cccn(-c3cccc(C(=O)NCCCCCCc4cccc5c4n(C)c(=O)n5C4CCC(=O)NC4=O)c3)c2=O)nn2c(C(=O)N[C@@H]3C[C@@H]3F)cnc12 (stereo partly drawn) [Example K222]
15 | < 1 | > 100 | > 100 | CNc1cc(N2CCc3c(-c4ccc(CN5CC(C6CCN(C(=O)c7ccc(Cl)c(N8CCC(=O)NC8=O)c7)CC6)C5)cn4)cccc32)nn2c(C(=O)N[C@@H]3C[C@@H]3F)cnc12 [Example K525]
16 | > 100 | < 1 | > 100 | CNc1cc(Nc2cccn(-c3ccc(C(=O)N4CCC(OC5CC(c6ccc7c(c6)n(C)c(=O)n7C6CCC(=O)NC6=O)C5)CC4)cn3)c2=O)nn2c(C(=O)N[C@@H]3C[C@@H]3F)cnc12 (stereo partly drawn) [Example K393]
17 | > 100 | > 100 | > 100 | CNc1cc(Nc2cccn(-c3ccc(C(=O)NCCCCc4ccc5c(c4)n(C)c(=O)n5C4CCC(=O)NC4=O)cn3)c2=O)nn2c(C(=O)N[C@@H]3C[C@@H]3F)cnc12 (stereo partly drawn) [Example K264]
18 | < 1 | > 100 | < 1 | CNc1cc(Nc2cccc(-c3ccc(CN4CCN([C@H]5CC[C@@H](c6ccc7c(c6)n(C)c(=O)n7C6CCC(=O)NC6=O)CC5)CC4)cn3)c2OC)nn2c(C(=O)N[C@@H]3C[C@@H]3F)cnc12 (mixture of isomers) [Example K552]
19 | > 100 | > 100 | > 100 | CNC(=O)c1cnc(Nc2ccc(C(=O)NCCCCCCCCc3cc(N4CCCC(C(=O)Nc5ccc(=O)n(CC(=O)OC)c5)C4)ccn3)cn2)cc1Nc1cccc(-c2ncc(F)cn2)c1OC (stereo not drawn) [Example K598]
20 | > 100 | 10 to 100 | > 100 | O=C1CCN(c2cnc3cc(CCOCCOCCOCCOCCNc4cc(Nc5cccn(-c6ccccn6)c5=O)nn5c(C(=O)N[C@@H]6C[C@@H]6F)cnc45)ccn23)C(=O)N1 [Example K468]
21 | > 100 | < 1 | > 100 | CNC(=O)c1cnc(Nc2ccc(C(=O)NCCCCc3ccc4c(c3)n(C)c(=O)n4C3CCC(=O)NC3=O)cn2)cc1Nc1cccc(-c2ncc(F)cn2)c1OC (stereo not drawn) [Example K107]
22 | < 1 | > 100 | > 100 | CNc1cc(Nc2cccn(-c3ccc(C(=O)N4CC(N5CCN(c6ccc7c(c6)n(C)c(=O)n7C6CCC(=O)NC6=O)CC5)C4)cn3)c2=O)nn2c(C(=O)N[C@@H]3C[C@@H]3F)cnc12 (stereo partly drawn) [Example K419]
23 | 1 to 10 | > 100 | > 100 | CNc1cc(Nc2cccc(CN3CCN(C(=O)CCc4ccc(-c5ccc6c(c5)n(C)c(=O)n6C5CCC(=O)NC5=O)cc4)CC3)c2)nn2c(C(=O)NC3CC3)cnc12 (stereo not drawn) [Example K587]
24 | 1 to 10 | > 100 | 1 to 10 | Cn1c(=O)n(C2CCC(=O)NC2=O)c2ccc(-c3ccc(N4CC5(CN(Cc6ccc(-c7cccc(Nc8ccc9ncc(C(=O)NC%10CC%10)n9n8)c7)nc6)C5)C4)cc3)cc21 (stereo not drawn) [Example K515]
25 | 1 to 10 | > 100 | > 100 | CNc1cc(Nc2cccc(-c3ccc(CN4CCN(c5ccc(-c6ccc7c(c6)n(C)c(=O)n7C6CCC(=O)NC6=O)cc5)CC4)cn3)c2)nn2c(C(=O)NC3CC3OC)cnc12 (stereo not drawn) [Example K482]
26 | < 1 | > 100 | > 100 | CNc1cc(Nc2cccn(-c3ccc(C(=O)NC4CCC(CN(C)C5CCN(Cc6ccc7c(c6)n(C)c(=O)n7C6CCC(=O)NC6=O)CC5)CC4)cn3)c2=O)nn2c(C(=O)N[C@@H]3C[C@@H]3F)cnc12 (stereo partly drawn) [Example K428]
27 | 1 to 10 | > 100 | > 100 | CNc1cc(N2CCc3c(-c4ccc(C(=O)N5CCN([C@H]6CC[C@H](c7ccc(-c8ccc9c(c8)n(C)c(=O)n9C8CCC(=O)NC8=O)cc7)CC6)CC5)cn4)cccc32)nn2c(C(=O)N[C@@H]3C[C@@H]3F)cnc12 (stereo partly drawn) [Example K616]
